Some test systems named below: MCF7 breast; NCI/ADR-RES ovarian; MDA-MB-435; HS 578T breast; BT-549 breast; PC-3 prostate.
Experiment in all cases: NCI anticancer screen, dose series, 48 h

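In this assay, cells in 96-well plates receive the compound at five concentrations for 48 hours. Endpoints are linearly interpolated between the surrounding concentrations. GI50 = concentration required for 50% inhibition of growth. The concentration for full growth arrest is given as TGI.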 Some results are limits rather than exact numbers.

With `COc1ccc(-c2nn3ncccc3c2-c2ccnc(Nc3ccc4c(c3)OCCO4)n2)cc1`, the GI50 was 13.8 µM in the test on MCF7 breast; 7.52 µM in the test with NCI/ADR-RES ovarian; 12.5 µM with MDA-MB-435; 10.2 µM in the test on HS 578T breast; 12.8 µM in the test with BT-549 breast; 9.12 µM in the test with PC-3 prostate. The TGI in the test on MCF7 breast, with NCI/ADR-RES ovarian, with MDA-MB-435, in the test with HS 578T breast, in the test with BT-549 breast and in the test with PC-3 prostate was above 25 µM each time.
With `Cn1cc(C2=C(c3ccccc3C(F)(F)F)C(=O)NC2=O)c2ccccc21`, the GI50 in the test on MCF7 breast is 7.47 µM; in the test on NCI/ADR-RES ovarian, 9.53 µM; in the test on MDA-MB-435, 9.89 µM; in the test on HS 578T breast, 5.36 µM; in the test with BT-549 breast it was 11 µM; in the test on PC-3 prostate, 6.13 µM. The TGI in the test with MCF7 breast, with NCI/ADR-RES ovarian, in the test with MDA-MB-435, in the test with HS 578T breast, in the test on BT-549 breast and with PC-3 prostate was above 25 µM throughout.
As for `CCOc1ccc(C(C)=O)cc1NC(=O)c1cccc(-c2nnn(CC)n2)c1`, the GI50 in the test with MCF7 breast is 0.333 µM; in the test with NCI/ADR-RES ovarian, 0.511 µM; with MDA-MB-435 it was 0.308 µM; in the test with HS 578T breast it was 0.996 µM; in the test with BT-549 breast, 0.961 µM; in the test on PC-3 prostate it was 0.481 µM. The TGI was above 100 µM with MCF7 breast; 13.3 µM in the test with NCI/ADR-RES ovarian; 2.34 µM in the test with MDA-MB-435; above 100 µM with HS 578T breast; above 100 µM with BT-549 breast; above 100 µM with PC-3 prostate.
In the case of `COc1ccc2nc3cccc([N+](=O)[O-])c3c(NCCNCCN(C)C)c2c1`, the GI50 in the test with MCF7 breast was 0.0192 µM; with NCI/ADR-RES ovarian, 0.884 µM; in the test on MDA-MB-435, 0.111 µM; with HS 578T breast, 0.175 µM; in the test with BT-549 breast it was 0.418 µM. In addition, the TGI with MCF7 breast was found to be 0.221 µM; in the test with NCI/ADR-RES ovarian it was 4.67 µM; in the test on MDA-MB-435, 0.248 µM; in the test with HS 578T breast, 0.558 µM; with BT-549 breast, 1.06 µM; with PC-3 prostate, 0.293 µM.
For the molecule `Cc1c(C)c2c(c(C)c1OCC(=O)O)CC[C@@](C)(CCC[C@@H](C)CCC[C@@H](C)CCCC(C)C)O2`, the GI50 is 74.6 µM in the test with MCF7 breast; 78.7 µM with NCI/ADR-RES ovarian; 72.6 µM with MDA-MB-435; 89 µM in the test with HS 578T breast; 71.7 µM with BT-549 breast; 34.9 µM in the test with PC-3 prostate. In addition, the TGI in the test with MCF7 breast was 199 µM; with NCI/ADR-RES ovarian, 210 µM; with MDA-MB-435 it was 142 µM; in the test with HS 578T breast it was 229 µM; in the test on BT-549 breast, 151 µM; with PC-3 prostate, 106 µM.
On to `CCN(CC)c1ccc(/C=N/NC(=O)CSc2nc3ccccc3c(=O)n2Cc2ccc(S(N)(=O)=O)cc2)c(O)c1`, for which the GI50 in the test with MCF7 breast is 0.457 µM; in the test on NCI/ADR-RES ovarian it was above 100 µM; in the test with MDA-MB-435 it was 2.07 µM; in the test with HS 578T breast, 2.11 µM; with BT-549 breast, 2.68 µM; in the test on PC-3 prostate, 0.829 µM. For the same molecule, the TGI in the test with MCF7 breast, in the test on NCI/ADR-RES ovarian, with MDA-MB-435, in the test on HS 578T breast, with BT-549 breast and with PC-3 prostate was above 100 µM each time.
For `CC12OC(C(=O)C13CCC3)C1C(=O)c3ccc4c(ccc5ccccc54)c3C(=O)C12` (stereo not given), the GI50 in the test with MCF7 breast is 5.1 µM; in the test with NCI/ADR-RES ovarian it was 4.45 µM; with MDA-MB-435 it was 12.8 µM; with HS 578T breast, 16 µM; with BT-549 breast it was 18.3 µM; with PC-3 prostate, 7.61 µM. The TGI in the test on MCF7 breast was 30.7 µM; in the test with NCI/ADR-RES ovarian it was 22.8 µM; with MDA-MB-435, 30.3 µM; in the test with HS 578T breast, 76.1 µM; with BT-549 breast, 48.4 µM; in the test on PC-3 prostate it was 28.8 µM.
As for `S=C(CSc1ccccc1)Nc1cccc2ccccc12`, the TGI in the test with MCF7 breast, in the test with NCI/ADR-RES ovarian, in the test with MDA-MB-435, in the test with HS 578T breast, in the test on BT-549 breast and in the test with PC-3 prostate was above 100 µM throughout.
In the case of `CC[C@@H](O)C[C@H]1CCC[C@@]2(C[C@@H]3OC(=O)/C=C/[C@@](C)(O)[C@@H](O)[C@H](C)[C@@H](O)[C@H](OC4CCC(N(C)C)C(C)O4)[C@@H](O)[C@](C)(O)CCCCC/C=C/[C@@H]4CC(C)(C)O[C@@]4(O)C[C@H](O2)[C@H]3C)O1` (stereo not given in full), the TGI in the test on MCF7 breast is 15.6 µM; in the test on NCI/ADR-RES ovarian it was 24 µM; with MDA-MB-435, 22.2 µM; in the test on HS 578T breast it was 33.5 µM; in the test with BT-549 breast it was 29.2 µM; in the test with PC-3 prostate, 15.7 µM.
For the molecule `OC(COc1ccccc1)CN1CCCCC1` (stereo not given), the TGI in the test on MCF7 breast, in the test on NCI/ADR-RES ovarian, in the test on MDA-MB-435, in the test with HS 578T breast, with BT-549 breast and in the test with PC-3 prostate was above 100 µM each time.
As for `NCCOc1ncccc1/C=C1\c2ccccc2-c2ccc([N+](=O)[O-])cc21`, the GI50 in the test with MCF7 breast was below 0.0109 µM; in the test on NCI/ADR-RES ovarian it was 0.154 µM; in the test with MDA-MB-435, 0.161 µM; in the test with HS 578T breast, 0.255 µM; in the test on BT-549 breast, 0.181 µM; in the test on PC-3 prostate, 0.177 µM. In addition, the TGI was determined as 0.409 µM in the test with MCF7 breast; 1.12 µM in the test on NCI/ADR-RES ovarian; 0.362 µM with MDA-MB-435; 1.26 µM in the test on HS 578T breast; 0.994 µM in the test with BT-549 breast; 1.11 µM with PC-3 prostate.
With `Cc1noc(C)c1-c1cnc2c(-c3ccc(C(=O)O)cc3)cn([C@@H](C)c3ccccn3)c2c1`, the GI50 with MCF7 breast is 0.186 µM; in the test with NCI/ADR-RES ovarian it was 2.28 µM; in the test with MDA-MB-435, 0.603 µM; with HS 578T breast, 0.188 µM; in the test on BT-549 breast it was 11.8 µM; with PC-3 prostate, 3.28 µM. The TGI with MCF7 breast, in the test with NCI/ADR-RES ovarian, with MDA-MB-435, in the test on HS 578T breast, with BT-549 breast and with PC-3 prostate was above 100 µM in each case.

Source of the values: PubChem BioAssay (NCI).
